Values joined by “and” are separate entries in the source; they are usually repeats but may differ in a detail not shown here. Equal entries are not always repeated.
What was measured:
Type in all cases: in vivo, patients with advanced cancer
[1] = Left ventricular ejection fraction; conditions: for Mean (SD) change from baseline in LVEF(%): sorafenib 400 mg bid
[2] = QT/QTc interval on 12-lead Holter ECG
[3] = Supine blood pressure and heart rate; conditions: for Mean (SD) maximal change from baseline in supine HR / Mean (SD) maximal change from baseline in supine diastolic BP / Mean (SD) maximal change from baseline in supine systolic BP: over 12-h period
[4] = 2 h post-dose, Day 1 of cycle 2
[5] = 4 h post-dose, Day 1 of cycle 2
[6] = 6 h post-dose, Day 1 of cycle 2
[7] = 8 h post-dose, Day 1 of cycle 2
[8] = 12 h post-dose, Day 1 of cycle 2
[9] = at t max, Day 1 of cycle 2, listed as Sorafenib
[10] = over 12-h period, Day 1 of cycle 2
[11] = over 12-h period, Day 1 of cycle 2, listed as Sorafenib
[12] = Day 1 of cycle 2, listed as Sorafenib

## CNC(=O)c1cc(Oc2ccc(NC(=O)Nc3ccc(Cl)c(C(F)(F)F)c3)cc2)ccn1 [sorafenib]
[1]; RCC patient with diabetes (baseline 67%), Day 1 of cycle 3, MUGA scan
  LVEF measurement, individual patient: 42.2%
[1]; RCC patient with diabetes (baseline 67%), repeat MUGA scan (+16 days)
  LVEF measurement, individual patient: 50%
[1]; primary analysis population, Day 1 of cycle 3 (after 2 cycles)
  Mean (SD) change from baseline in LVEF(%): −0.8 (±8.6) LVEF(%) and −0.8 LVEF(%)
[1]; primary analysis population, Day 1 of cycle 3 (after 2 cycles), listed as Sorafenib
  Mean (SD) change from baseline in LVEF(%): −0.8 (8.6) LVEF(%)
[1]; primary analysis population, Day 1 of cycle 5 (after 4 cycles)
  Mean (SD) change from baseline in LVEF(%): −1.2 (±7.8) LVEF(%) and −1.2 LVEF(%)
[1]; primary analysis population, Day 1 of cycle 5 (after 4 cycles), listed as Sorafenib
  Mean (SD) change from baseline in LVEF(%): −1.2 (7.8) LVEF(%)
[1]; primary group, after 2 cycles
  Patients with decrease from baseline of ≥10 LVEF(%): 12.9% and 13%
[1]; primary group, after 4 cycles
  Patients with decrease from baseline of ≥10 LVEF(%): 4%
[1]; primary patient group (n = 24), after 4 cycles
  Mean decline in LVEF(%): 1.2 LVEF(%)
[1]; secondary analysis population, Day 1 of cycle 3 (after 2 cycles)
  Mean (SD) change from baseline in LVEF(%): −1.0 (8.5) LVEF(%)
[1]; secondary analysis population, Day 1 of cycle 5 (after 4 cycles)
  Mean (SD) change from baseline in LVEF(%): −1.4 (9.4) LVEF(%)
[1]; secondary group, after 2 cycles
  Patients with decrease from baseline of ≥10 LVEF(%): 12.0%
[1]; secondary group, after 4 cycles
  Patients with decrease from baseline of ≥10 LVEF(%): 7.1%
[1]; secondary patient group (n = 14), after 4 cycles
  Mean decline in LVEF(%): 1.4 LVEF(%)
[1]; secondary patient group (n = 25), after 2 cycles
  Mean decline in LVEF(%): 1.0 LVEF(%)
[1]; single patient without clinical signs of CHF
  Largest individual decrease in ejection fraction: −24.8 LVEF[%]
[1]; thymic cancer patient (baseline 72%), repeat ECHO scan (+3 days)
  LVEF measurement, individual patient: 60–65%
[2]; [4]
  Mean (SD) change from baseline in QTcB: 0.5 (18.0) ms
[2]; [5]
  Mean (SD) change from baseline in QTcB: 2.0 (20.2) ms
[2]; [6]
  Mean (SD) change from baseline in QTcB: 1.6 (17.3) ms
[2]; [7]
  Mean (SD) change from baseline in QTcB: 0.2 (16.1) ms
[2]; [8]
  Mean (SD) change from baseline in QTcB: 2.9 (17.2) ms
[2]; Pre-dose, Day 1 of cycle 2
  Mean (SD) change from baseline in QTcB: 1.1 (18.3) ms
[2]; at any time during the study
  Patients with a QTcB or QTcF value >500 ms: No patient
[2]; at t max, Day 1 of cycle 2
  Mean (SD) change from baseline in QTcB: 4.2 ms and 4 ms
[2]; [9]
  Mean (SD) change from baseline in QTcB: 4.2 (19.2) ms
[2]; during the study
  Patients with a ≥60-ms change from baseline in QTcB or QTcF: no patient
[2]; [10]
  Mean (SD) maximal change from baseline in QT: 32.9 (24.1) ms
  Mean (SD) maximal change from baseline in QTcB: 16.4 ms and 16 ms
  Mean (SD) maximal change from baseline in QTcF: 19.8 ms and 20 ms
[2]; [11]
  Mean (SD) maximal change from baseline in QTcB: 16.4 (15.3) ms
  Mean (SD) maximal change from baseline in QTcF: 19.8 (14.4) ms
[2]; over 12 h, after 1 cycle
  Mean increases from baseline by time point, QTcB (range): 0.2 to 2.9 ms
  Mean increases from baseline by time point, QTcF (range): 4.2 to 5.8 ms
[2]; patient with maximum prolongation, after 1 cycle, baseline 396.7 ms
  QTcF value, individual patient: 446.3 ms
[3]; [4]
  Mean (SD) change from baseline in supine HR: −5.4 (9.2) bpm
[3]; 2 h post-dose, Day 1 of cycle 5
  Mean (SD) change from baseline in supine HR: −0.03 (7.1) bpm
[3]; [5]
  Mean (SD) change from baseline in supine HR: −4.0 (8.8) bpm
[3]; 4 h post-dose, Day 1 of cycle 5
  Mean (SD) change from baseline in supine HR: 0.1 (9.2) bpm
[3]; [6]
  Mean (SD) change from baseline in supine HR: −6.0 bpm
[3]; 6 h post-dose, Day 1 of cycle 2, listed as Sorafenib
  Mean (SD) change from baseline in supine HR: −6.0 (8.9) bpm
[3]; 6 h post-dose, Day 1 of cycle 5
  Mean (SD) change from baseline in supine HR: 0 (8.7) bpm
[3]; [7]
  Mean (SD) change from baseline in supine HR: −4.2 (11.3) bpm
[3]; 8 h post-dose, Day 1 of cycle 5
  Mean (SD) change from baseline in supine HR: 0.7 (8.6) bpm
[3]; [8]
  Mean (SD) change from baseline in supine HR: −5.8 (13.3) bpm
[3]; 12 h post-dose, Day 1 of cycle 5
  Mean (SD) change from baseline in supine HR: 1.6 (10.0) bpm
[3]; Day 1 of cycle 5, sorafenib 400 mg bid
  Patients with BP ≥150/90 mm Hg at t max: 2 n (%)
[3]; Pre-dose, Day 1 of cycle 2
  Mean (SD) change from baseline in supine HR: −4.4 (8.1) bpm
[3]; Pre-dose, Day 1 of cycle 5
  Mean (SD) change from baseline in supine HR: −2.9 (10.0) bpm
[3]; after 1 cycle
  Patients who exceeded 150/90 mm Hg (both systolic and diastolic): Four
  Patients who exceeded a systolic reading of 150 mm Hg only: 4 patients
  Patients with a diastolic reading surpassing 90 mm Hg only: 2 patients
[3]; after 1 cycle (6% at baseline)
  Patients who had become hypertensive: Thirty-two
[3]; after both 1 and 4 cycles
  Increase in both systolic and diastolic BP at t max: 11–12 mm Hg
[3]; at cycle 4
  Patients hypertensive: 13%
[3]; at t max, Day 1 of cycle 2
  Mean (SD) change from baseline in supine HR: −6.6 bpm
[3]; [9]
  Mean (SD) change from baseline in supine HR: −6.6 (10.6) bpm
[3]; at t max, Day 1 of cycle 5
  Mean (SD) change from baseline in supine HR: −3.3 bpm
[3]; at t max, Day 1 of cycle 5, listed as Sorafenib
  Mean (SD) change from baseline in supine HR: −3.3 (7.3) bpm
[3]; during treatment with sorafenib
  Patients who started receiving antihypertensive medications during treatment: Three
[3]; Day 1 of cycle 2
  Mean (SD) maximal change from baseline in supine HR: 2.9 (±8.2) bpm
  Mean (SD) maximal change from baseline in supine diastolic BP: 19.8 (±9.0) mm Hg
  Mean (SD) maximal change from baseline in supine systolic BP: 27.7 (±18.5) mm Hg
[3]; [12]
  Mean (SD) maximal change from baseline in supine HR: 2.9 (8.2) bpm
  Mean (SD) maximal change from baseline in supine diastolic BP: 19.8 (9.0) mm Hg
  Mean (SD) maximal change from baseline in supine systolic BP: 27.7 (18.5) mm Hg
[3]; Day 1 of cycle 5
  Mean (SD) maximal change from baseline in supine HR: 8.3 (±6.8) bpm

Source: paper PMC3064895 (Cancer Chemotherapy and Pharmacology, 2010)
